Drawing on ChEMBL document CHEMBL3271949, “Drugs derived from cannabinoids. 3. Sulfur analogs, thiopyranobenzopyrans and thienobenzopyrans” (J Med Chem, 1976), this text covers Activity, ED50 and LD50 for nine compounds.

Activity calls are given as the source filed them.

For data set [1], the system named is Mus musculus. The data set is described as follows: Tranquilizer activity in albino BALB/cJ mouse assessed as reduction in footshock-induced fighting behavior at 5 mg/kg, po after 90 mins. Type of data set: functional. On the set-up: scale not given: the % may be the effect or the level left.
For data set [2], the system named is Rattus norvegicus. As to the kind of experiment: Spontaneous motor activity in Long-Evans rat at 5 mg/kg measured up to 2 hrs relative to control. Type of data set: functional.
Data set [3] relates to Mus musculus. The data set is described as follows: Antinociceptive activity in po dosed mouse assessed as inhibition of acetic acid-induced writhing administered 30 mins before acetic acid challenge measured after 5 to 20 mins. Type of data set: functional.
Data set [4] deals with Rattus norvegicus. The data set is described as follows: Antihypertensive activity in spontaneous hypertensive rat assessed as reduction of blood pressure at 10 mg/kg, po after 24 hrs. Type of data set: functional. On the set-up: scale not given: the % may be the effect or the level left.
In a further data set the test system is Felis catus. The data set is described as follows: Sedative-hypnotic activity in po dosed cat assessed as rapid eye movement sleep. Type of data set: functional, organism-based.
Data set [5] deals with Mus musculus. As to the kind of experiment: Antidepressant activity in mouse assessed as potentiation of (+/-)-dopa-induced motor responses at 5 mg/kg, po administered 4 hrs before dopa challenge. Details: dose 5 mg/kg. Type of data set: functional, organism-based.
The subject of data set [6] is Rattus norvegicus. As to the kind of experiment: Antihypertensive activity in spontaneous hypertensive rat assessed as reduction of blood pressure at 10 mg/kg, po after 4 hrs. Type of data set: functional. Details: scale not given: the % may be the effect or the level left.
The nature of data set [7]: Toxicity in po dosed mouse. The settings on record: in vivo. Type of data set: organism-based.
For data set [8], the system named is Mus musculus. As to the kind of experiment: Tranquilizer activity in albino BALB/cJ mouse assessed as reduction in footshock-induced fighting behavior at 10 mg/kg, po after 90 mins. Type of data set: functional. On the set-up: scale not given: the % may be the effect or the level left.
The species entered for data set [9] is Mus musculus. As to the kind of experiment: Analgetic activity in mouse by hot-plate test. Type of data set: functional.
Data set [10] concerns Canis familiaris. The data set is described as follows: Toxicity in beagle-like dog assessed as reduced reactivity with ataxia observed for 24 hrs at 0.1 mg/kg, po single dose. Type of data set: organism-based, Canis lupus familiaris. Details: dose 0.1 mg/kg, route oral. The settings on record: in vivo.
For data set [11], the system named is Canis familiaris. The data set is described as follows: Toxicity in beagle-like dog assessed as reduced reactivity with ataxia observed for 24 hrs at 10 mg/kg, po single dose. Type of data set: organism-based, Canis lupus familiaris. Details: dose 10 mg/kg, route oral. The settings on record: in vivo.
The test system of data set [12] is Canis familiaris. As to the kind of experiment: Toxicity in beagle-like dog assessed as reduced reactivity with ataxia observed for 24 hrs at 1 mg/kg, po single dose. Type of data set: organism-based, Canis lupus familiaris. On the set-up: dose 1 mg/kg, route oral. To be noted: in vivo.
Data set [13] concerns Rattus norvegicus. As to the kind of experiment: Antihypertensive activity in spontaneous hypertensive rat assessed as reduction of blood pressure at 10 mg/kg, po after 48 hrs. Type of data set: functional. Details: scale not given: the % may be the effect or the level left.
In data set [14] the test system is Rattus norvegicus. The data set is described as follows: Analgetic activity in po dosed Sprague-Dawley rat assessed as pain threshold after 15 to 90 mins by tail-flick test. Type of data set: functional.
Data set [15] has as its system Rattus norvegicus. The data set is described as follows: Spontaneous motor activity in Long-Evans rat at 10 mg/kg measured up to 2 hrs relative to control. Type of data set: functional.

Usually ED50 stands for the midpoint of the dose-response relation. By LD50 is commonly meant the dose at which mortality reaches 50%. On to `CCCCCC(C)C(C)c1cc(O)c2c(c1)OC(C)(C)C1=C2CCS1` (stereo unspecified), for which the Activity in the data set with Mus musculus [1] was 1%; in the data set on Rattus norvegicus [2] it was 1%; in the data set on Rattus norvegicus [4] it was 2%; in the data set on Rattus norvegicus [6], 17%; with Mus musculus [8], 33%; with Canis familiaris [10], “Toxic”. In addition, the results for the ED50 in the data set on Mus musculus [3] and in the data set filed under Mus musculus [9] were 71.8 mg/kg and 12.1 mg/kg, respectively. The result in the data set with Felis catus and with Mus musculus [5] was Active. This compound also had an LD50 in data set [7] of more than 300 mg/kg.

On to `CCCCCC(C)C(C)c1cc(O)c2c(c1)OC(C)(C)C1=C2CSC1` (stereo unspecified), for which the Activity in the data set on Rattus norvegicus [2] is reported as 1%; in the data set with Mus musculus [8] it was 33%; in the data set on Canis familiaris [11], “Toxic”. For the same compound, the ED50 in the data set with Mus musculus [3] was 51.7 mg/kg; in the data set filed under Mus musculus [9], more than 120 mg/kg. Besides, the outcome in the data set on Mus musculus [5] was Active. In [7], this compound came in with an LD50 of more than 300 mg/kg.

`CCCCCC(C)C(C)c1cc(O)c2c(c1)OC(C)(C)c1sccc1-2` (stereo unspecified): the Activity in the data set with Rattus norvegicus [2] and in the data set with Mus musculus [8] was 1% throughout. Also, the ED50 in the data set with Mus musculus [3] is more than 10 mg/kg. Besides, the result in the data set on Mus musculus [5] was Active. The compound further gave an LD50 in [7] of more than 300 mg/kg.

Turning to `CCCCCC(C)C(C)c1cc(OC(=O)CCCN2CCOCC2)c2c(c1)OC(C)(C)C1=C2CCS1.Cl` (stereo unspecified), the Activity with Mus musculus [1] is given as 1%; in the data set on Rattus norvegicus [2], 1%; with Mus musculus [8] it was 33%; in the data set on Canis familiaris [12], “Non-toxic”. Also, in the data set with Mus musculus [5], the result was Active. In data set [7], this compound came in with an LD50 of more than 300 mg/kg. This compound also returned an ED50 in the data set filed under Mus musculus [9] of more than 50 mg/kg.

As to `CCCCCC(C)C(C)c1cc(O)c2c(c1)OC(C)(C)C1=C2CCCS1` (stereo unspecified) [TINABINOL], the Activity in the data set on Rattus norvegicus [2] was 1%; with Rattus norvegicus [4], 28%; with Rattus norvegicus [13] it was 19%; in the data set on Rattus norvegicus [6], 15%; in the data set on Mus musculus [8], 1%; in the data set with Canis familiaris [12] it was “Toxic”. The figures for the ED50 with Mus musculus [3], in the data set filed under Mus musculus [9] and in the data set with Rattus norvegicus [14] were 8.6 mg/kg, 5.7 mg/kg and 2.7 mg/kg, respectively. Further, in the data set with Felis catus, the outcome was inactive. In addition, the outcome in the data set on Mus musculus [5] was Active. The same compound gave an LD50 in data set [7] of more than 300 mg/kg.

Take `CCCCCC(C)C(C)c1cc(OC(=O)CCCN2CCCCC2)c2c(c1)OC(C)(C)C1=C2CCS1.Cl` (stereo unspecified): the results for the Activity in the data set with Rattus norvegicus [2], in the data set with Mus musculus [8] and with Canis familiaris [12] were 1%, 33% and “Non-toxic”, respectively. Also, in the data set on Mus musculus [3], the ED50 is 24 mg/kg. Also, the outcome in the data set on Mus musculus [5] was Active. The LD50 in [7] was more than 300 mg/kg.

With `CCCCCC(C)C(C)c1cc(O)c2c(c1)OC(C)(C)C1=C2CCSC1` (stereo unspecified), the Activity in the data set on Mus musculus [1] was 1%; in the data set with Rattus norvegicus [15], 1%; with Canis familiaris [11] it was “Toxic”. The ED50 with Mus musculus [3] and in the data set filed under Mus musculus [9] was more than 40 mg/kg each time. In addition, in the data set on Mus musculus [5], the result was Active. Besides, the LD50 in data set [7] is more than 300 mg/kg.

For the compound `CCCCCC(C)C(C)c1cc(OC(=O)C(C)CCN2CCOCC2)c2c(c1)OC(C)(C)C1=C2CCCS1.Cl.O` (stereo unspecified), the Activity worked out at 1% in the data set on Rattus norvegicus [2] and 66% in the data set on Mus musculus [8]. In addition, the ED50 with Mus musculus [3] was found to be 22.6 mg/kg. Besides, the outcome with Felis catus was inactive. Also, in the data set on Mus musculus [5], the outcome was Active. The same compound showed an LD50 in [7] of more than 300 mg/kg.

For the compound `CCCCCC(C)C(C)c1cc(OC(=O)CCCN2CCCCC2)c2c(c1)OC(C)(C)C1=C2CCCS1.Cl` (stereo unspecified), the results for the Activity in the data set with Mus musculus [1] and with Rattus norvegicus [2] were 1% and 66%, respectively. Besides, the ED50 in the data set with Mus musculus [3] turned out to be 14.7 mg/kg. Further, the outcome in the data set on Mus musculus [5] was Active. For the same compound, the LD50 in data set [7] is more than 300 mg/kg.
